Experiment [1] deals with diffuse large B-cell lymphoma (DLBCL) cells. As to the kind of experiment: Growth inhibition (CellTiter-Glo) in DLBCL cells, including cells with induced resistance to PU-H71. Format: cell-based, human. The conditions noted are these: for Spectrum of sensitive DLBCLs: FIG. 1C, PU-H71-sensitive versus compound 32-sensitive DLBCL lines. An excerpt:
(§1) Cell lines: MDA-MB-468 cells were obtained from the American Type Culture Collection. DLBCL cells were described in Cerchietti L C, et al. BCL6 repression of EP300 in human diffuse large B cell lymphoma cells provides a basis for rational combinatorial therapy. J Clin Invest. Dec. 1, 2010; 120(12): 4569-4582; and Cerchietti L C, et al. A purine scaffold Hsp90 inhibitor destabilizes BCL-6 and has specific antitumor activity in BCL-6-dependent B cell lymphomas. Nat Med. 2009 December; 15(12):1369-76. MDA-MB-468 cells were grown in DME/F12 with 10% FBS and 1% penicillin and streptomycin. OCI-LY1R cells were developed by continuous incubation of OCI-LY1 cells with suboptimal concentrations of PU-H71 (depicted below) with subsequent selection of resistant clones. OCI-LY1, OCI-LY1R and OCI-LY7 cells were cultured in IMDM supplemented with 20% FBS, 1% glutamax and 1% penicillin and streptomycin. OCI-LY3, FARAGE, HBL1, Karpas422, MD901, U2932, SU-DHL4, SU-DHL6, RCK8 and TMD8 cells were grown in RPMI with 10% FBS, 1% glutamax and 1% penicillin and streptomycin.
Growth inhibition: 5,000 cells per well were plated in black 96-well microtiter plates and treated next day with indicated compounds at 1/2 serial dilutions. The plate was incubated for 72h after which growth was measured using the CellTiter-Glo Luminescent Cell Viability Assay (Promega) according to manufacture's instructions. The percentage cell growth inhibition was calculated by comparing luminescence readings obtained from treated versus control cells, accounting for initial cell population. The luminescence signal in each well was measured using the Analyst GT microplate reader (Molecular Devices).
On the technique in general: Cellular ATP, detected with luciferase, serves as a proxy for viable cell number.

In experiment [2] the test system is MDA-MB-468 triple negative breast cancer cells. The experiment is described as follows: Western blot of anti-apoptotic protein complexes. Type of experiment: cell-based. Conditions: FIG. 1A, MDA-MB-468 cells, 24 h.
Source text: as §1
Western blot: Cells were plated and treated next day with indicated drug concentrations for 24h. […] The chemiluminescent signal was detected using the Enhanced Chemiluminescence Detection System (Amersham Biosciences) according to the manufacturer's instructions.
On the technique in general: A western blot detects proteins with antibodies after separation by electrophoresis.

The next experiment concerns MOLM-13 cells. As to the kind of experiment: Caspase cleavage assay (Caspase3, 7 activation). Type of experiment: cell-based. The conditions noted are these: Homo sapiens, 16 h treatment, caspase substrate Z-DEVD-R110, read-out: c* Concentration at which 50% of the maximum signal was achieved (caspase activation). In a few lines:
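Cells (30,000/well, RPMI) treated 16 h with compound or DMSO in triplicate, then given buffer with 10 mM HEPES pH 7.5, 2 mM EDTA, 0.1% CHAPS and 25 μM Z-DEVD-R110. Fluorescence read once signal stabilized; results given as percentage increase in apoptotic cells versus DMSO-treated control.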

pEC50: −log10 of the molar value.

The results in this text go back to US10160729B2, “Hsp70 modulators and methods for making and using the same” (Memorial Sloan Kettering Cancer Center, priority 2014, dated 2018).

Consider `CC(C)NCCCn1c(Sc2cc3c(cc2I)OCO3)nc2c(N)ncnc21` [PU-H71, reference compound], for which the “Spectrum of sensitive DLBCLs” value in experiment [1] was “does not overlap”.
`CN1CCN(c2ncc(Sc3ccc(N)nc3)c(OCc3ccccc3)n2)CC1` [compound 32, 5-((4-(Benzyloxy)-2-(4-methylpiperazin-1-yl)pyrimidin-5-yl)thio)pyridin-2-amine]: the “Effect on Hsp70-regulated anti-apoptotic protein complexes” value in experiment [2] is “effects reverted”. Further, the “Activity in DLBCL cells with induced resistance to PU-H71” value in experiment [1] (FIG. 1B, DLBCL cells with induced resistance to Hsp90 inhibitor PU-H71) is recorded as “retains activity”. Further, the “Spectrum of sensitive DLBCLs” value in experiment [1] is on record as “does not overlap”. Further, the pEC50 with MOLM-13 cells was 6.40 to 6.70.
`CN1CCN(c2ncc(Sc3ccc(C(N)=O)c(C(F)(F)F)c3)c(OCc3cccc(N(C)C)c3)n2)CC1=O` [compound 345, 4-((4-((3-(Dimethylamino)benzyl)oxy)-2-(4-methyl-3-oxopiperazin-1-yl)pyrimidin-5-yl)thio)-2-(trifluoromethyl)benzamide]: the pEC50 in the experiment with MOLM-13 cells is 5.92 to 6.00.
On the same count and under the same terms, next, `C#CCN1CCN(c2ncc(Sc3ccc(C(N)=O)cc3)c(OCc3cccc(Cl)c3)n2)CC1` [compound 348, 4-((4-((3-Chlorobenzyl)oxy)-2-(4-(prop-2-yn-1-yl)piperazin-1-yl)pyrimidin-5-yl)thio)benzamide]: 6.00 to 6.40; `C#CCN1CCN(c2ncc(Sc3ccc(C(N)=O)c(C(F)(F)F)c3)c(OCc3cccc(Cl)c3)n2)CC1` [compound 351, 4-((4-((3-Chlorobenzyl)oxy)-2-(4-(prop-2-yn-1-yl)piperazin-1-yl)pyrimidin-5-yl)thio)-2-(trifluoromethyl)benzamide]: 5.92 to 6.00.
Take `C#CCN1CCN(c2ncc(Sc3ccc(C(N)=O)cc3)c(OCc3ccc(F)c(Cl)c3)n2)CC1` [compound 354, 4-((4-((3-Chloro-4-fluorobenzyl)oxy)-2-(4-(prop-2-yn-1-yl)piperazin-1-yl)pyrimidin-5-yl)thio)benzamide]: the pEC50 in the experiment with MOLM-13 cells is > 6.70.
Still for that read-out and setting: next, `C#CCN1CCN(c2ncc(Sc3ccc(C(N)=O)c(C(F)(F)F)c3)c(OCc3cccc(I)c3)n2)CC1` [compound 357, 4-((4-((3-Iodobenzyl)oxy)-2-(4-(prop-2-yn-1-yl)piperazin-1-yl)pyrimidin-5-yl)thio)-2-(trifluoromethyl)benzamide]: 6.40 to 6.70; `CN(C)[C@@H]1CCN(c2ncc(Sc3ccc(C(N)=O)cc3)c(OCc3cccc(F)c3)n2)C1` [compound 363, (R)-4-((2-(3-(Dimethylamino)pyrrolidin-1-yl)-4-((3-fluorobenzyl)oxy)pyrimidin-5-yl)thio)benzamide]: 6.40 to 6.70; `CN(C)[C@@H]1CCN(c2ncc(Sc3ccc(C(N)=O)cc3)c(OCc3cccc(Cl)c3)n2)C1` [compound 365, (R)-4-((4-((3-Chlorobenzyl)oxy)-2-(3-(dimethylamino)pyrrolidin-1-yl)pyrimidin-5-yl)thio)benzamide]: 6.40 to 6.70.
As to `CN(C)[C@@H]1CCN(c2ncc(Sc3ccc(C(N)=O)cc3)c(OCc3cccc(Br)c3)n2)C1` [compound 367, (R)-4-((4-((3-Bromobenzyl)oxy)-2-(3-(dimethylamino)pyrrolidin-1-yl)pyrimidin-5-yl)thio)benzamide], in the experiment on MOLM-13 cells, the pEC50 was 6.40 to 6.70.
The same measure, in the same setting: next, `CN(C)[C@@H]1CCN(c2ncc(Sc3ccc(C(N)=O)cc3)c(OCc3cccc(I)c3)n2)C1` [compound 369, (R)-4-((2-(3-(Dimethylamino)pyrrolidin-1-yl)-4-((3-iodobenzyl)oxy)pyrimidin-5-yl)thio)benzamide]: 6.40 to 6.70; `COc1cccc(COc2nc(N3CC[C@@H](N(C)C)C3)ncc2Sc2ccc(N)nc2)c1` [compound 375, (R)-5-((2-(3-(Dimethylamino)pyrrolidin-1-yl)-4-((3-methoxybenzyl)oxy)pyrimidin-5-yl)thio)pyridin-2-amine]: > 6.70; `CN(C)[C@@H]1CCN(c2ncc(Sc3ccc(N)nc3)c(OCc3cccc(Cl)c3)n2)C1` [compound 376, (R)-5-((4-((3-Chlorobenzyl)oxy)-2-(3-(dimethylamino)pyrrolidin-1-yl)pyrimidin-5-yl)thio)pyridin-2-amine]: > 6.70.
Still for that read-out and setting: next, `NC(=O)c1ccc(Sc2cnc(N3CCN(CC#CCO)CC3)nc2OCc2cccc(Cl)c2)cc1` [compound 379, 4-((4-((3-Chlorobenzyl)oxy)-2-(4-(4-hydroxybut-2-yn-1-yl)piperazin-1-yl)pyrimidin-5-yl)thio)benzamide]: > 6.70.
